According to patent publication US11401255B2, “Small molecule activators of Parkin enzyme function” (Mayo Foundation for Medical Education and Research, priority 2016, dated 2022):

How the values were obtained:
[1] = tested on: HeLa EGFP-Parkin cells; test: Co-recruitment of autophagy receptors to mitochondria (immunofluorescence); assay type: cell-based, human
Experimental: Cells were grown on poly-D-lysine coated glass coverslips. After treatments, cells were fixed in 4% paraformaldehyde and permeabilized using 1% Triton X-100, for each 10 min. Cells were blocked in 10% goat serum. Primary and secondary antibodies were diluted in 1% BSA/PBS and each incubated for 1 h at RT. Primary antibodies used: DNA (mouse, 1:250, Progen, AC-30-10), NBR1 (mouse, 1:100, Abnova H00004077-M01), NDP52 (rabbit, 1:400, Proteintech, 12229-1-AP), OPTN (mouse, 1:200, Santa Cruz, sc-166576), p62 (mouse, 1:400, BD Biosciences, 610832), pSer65-Ub (rabbit, 1:500, in-house (Fiesel et al., EMBO Reports (2015) 16:1114-30; Fiesel et al., (2015) Autophagy 11:2125-2126)), TAX1BP1 (rabbit, 1:200, Cell Signaling, #5105), TOM20 (mouse, 1:100, Santa Cruz, sc-17764), TOM20 (rabbit, 1:2000, Proteintech, 11802-1-AP). Secondary antibodies conjugated to AlexaFluor-568 or-647 (Invitrogen) were diluted 1:1000. Hoechst 33342 (Invitrogen) was diluted 1:5000 to counterstain the nuclei.
To validate the activation of Parkin further downstream in the pathway, co-recruitment of endogenous autophagy receptors to mitochondria in HeLa EGFP-Parkin cells was analyzed. These dual adaptors recognize pSer65-Ub chains on damaged mitochondria and facilitate their engulfment by autophagosomal membrane via their interaction with LC3 proteins (Lazarou et al., Nature (2015) 524:309-14; Heo et al., Mol. Cell (2015) 60:7-20).

[2] = biological target: CYP 1A2 (Homo sapiens (Human), UniProt P05177); test: in vitro
CYP 1A2, sequence (P05177 whole entry): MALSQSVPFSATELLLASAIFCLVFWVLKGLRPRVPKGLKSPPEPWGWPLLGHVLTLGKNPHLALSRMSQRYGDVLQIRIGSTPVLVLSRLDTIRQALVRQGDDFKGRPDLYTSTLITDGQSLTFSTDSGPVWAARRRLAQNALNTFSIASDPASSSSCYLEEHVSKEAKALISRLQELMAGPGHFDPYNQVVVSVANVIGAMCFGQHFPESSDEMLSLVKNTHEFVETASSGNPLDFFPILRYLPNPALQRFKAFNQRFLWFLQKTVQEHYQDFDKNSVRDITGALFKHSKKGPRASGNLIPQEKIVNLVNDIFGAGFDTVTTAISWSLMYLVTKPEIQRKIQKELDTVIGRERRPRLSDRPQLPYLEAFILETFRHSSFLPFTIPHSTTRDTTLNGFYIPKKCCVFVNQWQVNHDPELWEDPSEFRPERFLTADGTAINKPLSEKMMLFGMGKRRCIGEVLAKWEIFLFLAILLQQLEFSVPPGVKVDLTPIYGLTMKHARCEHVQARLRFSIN
Experimental: (§1) CYP450 inhibition profiling provides valuable information regarding any possible drug-drug interactions for a test compound.
(§2) All experiments were performed using P450-Glo™ Assay Systems (Promega) in accordance with the manufacturer's protocols. The P450-Glo™ Assays provide a luminescent readout-based method for measuring cytochrome P450 activity. A conventional cytochrome P450 reaction was performed by incubating the cytochrome P450 and a luminogenic cytochrome P450 substrate. The substrates in the P450-Glo™ assays are derivatives of beetle luciferin. The derivatives themselves are not substrates for luciferase but are converted by cytochrome P450s to luciferin, which in turn reacts with luciferase to produce light. The amount of light produced was directly proportional to cytochrome P450 activity. All test points were performed in quadruplicates. Control membranes (without CYPs) represented the Negative control (baseline).
(§3) The following reference compounds were used to assess CYP inhibition: […]

[3] = biological target: CYP 2C19 (Homo sapiens (Human), UniProt P33261); test: in vitro
CYP 2C19, sequence (P33261 whole entry): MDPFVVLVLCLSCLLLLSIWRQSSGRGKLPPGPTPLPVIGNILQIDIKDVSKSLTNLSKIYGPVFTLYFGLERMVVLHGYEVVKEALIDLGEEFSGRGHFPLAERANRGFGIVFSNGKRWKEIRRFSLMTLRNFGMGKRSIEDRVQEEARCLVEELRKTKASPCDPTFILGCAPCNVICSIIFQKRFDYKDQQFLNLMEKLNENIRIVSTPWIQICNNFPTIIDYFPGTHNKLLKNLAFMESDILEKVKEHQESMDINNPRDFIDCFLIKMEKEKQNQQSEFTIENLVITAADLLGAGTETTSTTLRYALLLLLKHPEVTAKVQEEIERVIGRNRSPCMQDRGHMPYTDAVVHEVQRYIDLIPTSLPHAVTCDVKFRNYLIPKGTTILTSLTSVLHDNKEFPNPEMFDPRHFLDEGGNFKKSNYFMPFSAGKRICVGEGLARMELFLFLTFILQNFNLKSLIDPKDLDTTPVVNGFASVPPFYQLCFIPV
Experimental: as §1, §2, §3

[4] = biological target: CYP 3A4 (Homo sapiens (Human), UniProt P08684); test: in vitro; conditions: % Mean
CYP 3A4, sequence (P08684 whole entry): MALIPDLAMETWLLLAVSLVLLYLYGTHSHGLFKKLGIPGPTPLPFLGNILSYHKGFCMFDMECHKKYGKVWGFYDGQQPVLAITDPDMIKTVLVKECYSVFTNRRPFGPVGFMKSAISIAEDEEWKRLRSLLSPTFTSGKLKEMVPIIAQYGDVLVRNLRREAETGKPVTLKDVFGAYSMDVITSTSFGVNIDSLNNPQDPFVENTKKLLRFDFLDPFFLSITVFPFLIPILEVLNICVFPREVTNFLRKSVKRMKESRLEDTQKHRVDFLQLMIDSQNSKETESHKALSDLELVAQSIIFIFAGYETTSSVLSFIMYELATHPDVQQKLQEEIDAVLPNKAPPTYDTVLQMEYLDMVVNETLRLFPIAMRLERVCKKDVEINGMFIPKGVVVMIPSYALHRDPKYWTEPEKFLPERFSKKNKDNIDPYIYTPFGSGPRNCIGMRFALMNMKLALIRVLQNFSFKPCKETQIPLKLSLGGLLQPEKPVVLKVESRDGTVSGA
Experimental: as §1, §2, §3

[5] = biological target: CYP 2D6 (Homo sapiens (Human), UniProt P10635); test: in vitro; conditions: Inhibition
CYP 2D6, sequence (P10635 whole entry): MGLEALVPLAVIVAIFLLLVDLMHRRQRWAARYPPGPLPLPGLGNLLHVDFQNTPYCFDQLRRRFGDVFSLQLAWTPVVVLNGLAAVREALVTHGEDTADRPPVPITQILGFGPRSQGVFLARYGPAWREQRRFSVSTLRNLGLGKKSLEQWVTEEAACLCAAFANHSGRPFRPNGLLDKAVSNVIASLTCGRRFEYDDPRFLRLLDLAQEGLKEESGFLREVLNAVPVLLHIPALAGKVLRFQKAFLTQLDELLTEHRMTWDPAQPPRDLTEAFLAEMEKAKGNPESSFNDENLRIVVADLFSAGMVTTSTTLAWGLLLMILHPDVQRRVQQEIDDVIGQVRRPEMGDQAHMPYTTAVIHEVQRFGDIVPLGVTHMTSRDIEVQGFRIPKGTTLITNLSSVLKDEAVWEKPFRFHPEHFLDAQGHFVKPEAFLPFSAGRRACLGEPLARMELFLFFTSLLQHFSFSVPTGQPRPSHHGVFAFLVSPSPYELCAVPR
Experimental: as §1, §2, §3

[6] = Metabolic stability in mouse liver microsomes; assay type: in vitro ADME; conditions: 2 μM, 40 minutes, mouse hepatic microsomes
Experimental: Metabolic stability was defined as the percentage of parent compound lost over time in the presence of a metabolically active test system, such as rodent liver microsomal fractions.
Mouse hepatic microsomes were isolated from pooled (50), perfused livers of BALB/c male mice according to the standard protocol (Hill, J. R. in Current Protocols in Pharmacology 7.8.1-7.8.11, Wiley Interscience, 2003). The batch of microsomes was tested for quality control using imipramine, propranolol and verapamil as reference compounds. Microsomal incubations were carried out in 96-well plates in 5 aliquots of 40 μL each (one for each time point). Liver microsomal incubation medium contained PBS (100 mM, pH 7.4), MgCl2 (3.3 mM), NADPH (3 mM), glucose-6-phosphate (5.3 mM), glucose-6-phosphate dehydrogenase (0.67 units/mL) with 0.42 mg of liver microsomal protein per mL. Control incubations were performed replacing the NADPH-cofactor system with PBS. Compounds 1-4 and 31 (2 μM, final solvent concentration 1.6%) were each incubated with microsomes at 37° C. while shaking at […]. Incubations were performed in duplicates. Five time points over 40 minutes were analyzed. The reactions were stopped by adding 12 volumes of 90% acetonitrile-water to incubation aliquots, followed by protein sedimentation by centrifuging at 5500 rpm for 3 minutes. Supernatants were analyzed using the HPLC system coupled with tandem mass spectrometer. The elimination constant (kel), half-life (t1/2) and intrinsic clearance (Clint) were determined in a plot of ln(AUC) versus time, using linear regression analysis:
[formula] [formula] In order to indicate the quality of the linear regression analysis, the R (correlation coefficient) values were provided. In some cases, the last time point was excluded from the calculations to ensure acceptable logarithmic linearity of decay. C. Results

Row | SMILES | co-localization of OPTN, NBR1, NDP52, p62 and TAX1BP1 with Parkin on damaged mitochondria [1] | inhibition at 10 µM ([2]; % (individual replicates)) | inhibition at 10 µM ([2]; % Mean) | inhibition at 10 µM ([3]; % Mean) | inhibition at 10 µM [4] | inhibition at 10 µM ([5]; % (individual replicates)) | inhibition at 10 µM ([5]; % Mean) | metabolic stability [6] | inhibition at 10 µM ([3]; % (individual replicates))
1 | O=C(Cn1cnc2c1CCCC2)Nc1ccc(-c2ccccc2)cc1 [Compound 1] | increased co-localization | 73.2% | 69% | 9.4% | -24.4% | 18.5% | 17% | moderate stability | 
2 | CC(C)c1nccn1CC(=O)Nc1ccc(-c2ccccc2)cc1 [Compound 2] | increased co-localization | 49.3% | 40.4% | -9.5% | -14.3% |  | 17.3% | moderate stability | 
3 | CC(C)(C)Sc1ccc(NC(=O)Cn2ccnc2)cc1 [Compound 3] | increased co-localization | 98.6% | 97.6% | 92.5% | 88.3% | 98.9% | 99.7% | high metabolic stability | 97.4%
4 | O=C(Cn1ccnc1-c1ccccn1)Nc1ccc(-c2ccccc2)cc1 [Compound 4] | increased co-localization |  | 5.6% | -10.3% | 1.4% |  | 18.4% | low stability | 
5 | Cc1nc2c(c(N3CCCN(Cc4ccccc4)CC3)n1)CCCC2 [Compound 31] | increased co-localization |  | -0.7% | 16.2% | -16.1% |  | 60.6% | low stability | 14%
